This experiment addresses T1, rhCRTh2 (Homo sapiens, UniProt Q9Y5Y4).
T1 construct: expressed in transfected cells; host or cells: HEK cells (membrane preparation)
T1 sequence (Q9Y5Y4 1-395): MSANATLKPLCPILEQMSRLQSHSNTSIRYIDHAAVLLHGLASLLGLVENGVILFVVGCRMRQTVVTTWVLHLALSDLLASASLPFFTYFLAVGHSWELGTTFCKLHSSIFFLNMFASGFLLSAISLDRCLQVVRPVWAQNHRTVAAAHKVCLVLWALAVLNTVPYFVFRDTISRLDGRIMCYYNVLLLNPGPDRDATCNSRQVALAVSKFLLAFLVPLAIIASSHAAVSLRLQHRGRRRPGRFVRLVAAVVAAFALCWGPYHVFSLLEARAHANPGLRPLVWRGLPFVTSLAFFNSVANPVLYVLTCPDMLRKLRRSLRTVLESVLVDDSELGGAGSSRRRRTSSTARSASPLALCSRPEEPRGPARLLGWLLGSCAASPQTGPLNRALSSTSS
Put plainly: Ligand Binding Assay ([3H]PGD2 SPA on HEK cell membranes). As to conditions: [3H]PGD2 displacement, HEK cell membranes expressing rhCRTh2/Gα16, SPA beads. On the procedure: [^3H]PGD2 was purchased from Perkin Elmer Life Sciences with a specific activity of 100-210 Ci/mmol. All other chemicals were of analytical grade.
HEK cells expressing rhCRTh2/Gα16 were routinely maintained in DMEM containing 10% Foetal Bovine Serum (HyClone), 1 mg/ml geneticin, 2 mM L-glutamine and 1% non-essential amino acids. For the preparation of membranes, the adherent transfected HEKcells were grown to confluence in two layer tissue culture factories (Fisher, catalogue number TKT-170-070E). Maximal levels of receptor expression were induced by addition of […] sodium butyrate for the last 18 hours of culture. […] The final pellet was re-suspended in 4 ml of membrane homogenisation buffer per cell factory used and the protein content determined. […]
All assays were performed in Corning clear bottomed, white 96-well NBS plates (Fisher). […] (The optimum coating concentrations were determined for each batch of membranes) The beads were pelleted by centrifugation (800×g for 7 minutes at 4° C.), washed once with assay buffer (50 mM HEPES pH 7.4 containing 5 mM magnesium chloride) and finally re-suspended in assay buffer at a bead concentration of 10 mg/ml. […]

The IC50 is the concentration that gives 50% inhibition. The low end stands for greater potency, the high end for weaker potency. For the molecule `CCc1ccc(OCC(=O)O)c(-c2ccc(S(C)(=O)=O)cc2)c1` [Example 2, {[5-Ethyl-4′-(methylsulfonyl)biphenyl-2-yl]oxy}acetic acid], the IC50 was 79.4 nM.

`CCS(=O)(=O)c1ccc(-c2cc(OC)ccc2OCC(=O)O)cc1` [Example 3, {[4′-(Ethylsulfonyl)-5-methoxybiphenyl-2-yl]oxy}acetic acid] had an IC50 of 251 nM.

Values taken from patent publication US20060211765A1, “Novel compounds” (ASTRAZENECA AB, priority 2003, published 2006).
